Data reported in patent US20120028918A1, “PHARMACEUTICAL COMPOSITIONS AND METHODS OF MAKING SAME” (GLAXO WELLCOME MANUFACTURING PTE LTD., priority 2010, published 2012).

Legend:
[1] = biological target: T1, Akt1 (Homo sapiens, UniProt P31749); test: Akt kinase assay (HTRF, GSK-derived biotinylated peptide substrate); format: biochemical; conditions: activated Akt1, HTRF, 120 minute preincubation; read-out: IC50 against Akt1
T1 construct: a middle T tag was added to the 5′ end of the full length Akt1 gene; middle T tag (EYMPME) (N); biotin tag (from pS2neo vector); made in house; host or cells: Drosophila S2 cells
Method: (§1) Activated Akt isoforms were assayed utilizing a GSK-derived biotinylated peptide substrate. The extent of peptide phosphorylation was determined by Homogeneous Time Resolved Fluorescence (HTRF) using a europium-coupled monoclonal antibody specific for the phosphopeptide in combination with a streptavidin-linked allophycocyanin (SA-APC) fluorophore which will bind to the biotin moiety on the peptide. When the europium and APC are in proximity (i.e. bound to the same phosphopeptide molecule), a non-radiative energy transfer takes place from the […] to the APC, followed by emission of light from APC at 665 nm.
(§2) Materials required for the assay: • A. 100 nM activated Akt1 or 225 nM activated Akt2 • B. 10×R for AKT assay buffer (500 mM Hepes pH 7.5, 1% PEG m.w. 15000-20000, 1 mM EDTA, 1 mM EGTA, 1% BSA, 20 mM β glycerol phosphate) • C. 1 M KCl • D. 50% glycerol • E. 250 mM MgCl2 • F. 50 mM ATP pH 7.0 • G. 0.2 M DTT • H. 1 mM GSK3α biotinylated peptide (SynPep biotin-[…]-COOH) • I. Stop Buffer: 40 mM EDTA (pH8.4) • J. 8.5 uM SA-APC (PerkinElmer #CR130-100, lot No. N01001K-AAG16) • K. 4.9 uM Eu-W 1024 labeled phos-GSK3 monoclonal antibody (PerkinElmer #CUSM63178) • L. Detection Reagent: 15 mM Tris-HCl ([…]), 0.1% Tween20, 250 nM SA-APC (PerkinElmer #CR130-100, lot No. N01001K-AAG16), 0.735 nM Eu-W1024 labeled phos-GSK3 monoclonal antibody (PerkinElmer #CUSM63178) The reaction was assembled using the following protocol: • A. Add 0.5 uL inhibitor to test wells or 0.5 uL DMSO to no drug control wells. • B. Prepare Enzyme diluent: 18000 uL 10×R for AKT assay buffer, 9600 uL 250 mM MgCl2, 12000 uL 1 M KCl, 18000 uL 50% Glycerol, 900 uL 0.2 M DTT, 121500 uL MilliQ water. • C. Prepare Enzyme mixture (E-Mix): To […] Enzyme diluent, added 4.3 uL of a 100 nM activated AKT1, 1.9 uL of a 225 nM stock of activated Akt2 so concentration AKT1 and Akt2 were 6 pM. • D. 10 uL of Stop Buffer was added manually to wells acting as Background control wells. Initiate preincubation reactions by adding 15 uL of E-Mix using Multidrop 384. Spin down assay plates after the addition of E-Mix. • E. Prepare ATP/Peptide working solution (S-Mix): 10000 uL 10×R for AKT assay buffer, 5000 uL 50% glycerol, 250 uL 0.2M DTT, 600 uL 50 mM ATP, 100 uL 1 mM GSK3 peptide, 34050 uL MilliQ water. • F. To wells where preincubation is being conducted, after the 120 minute preincubation, initiate kinase reactions by adding 5 uL S-Mix using FRD. […] Let kinase assays run for 60 minutes at 25° C. • G. Stop kinase reactions by adding 10 uL Stop Buffer, using Multidrop 384, to wells other than background wells. • H. 10 uL of Detection Reagent was added using FRD and stopped assays were stored at room temperature for more than 2 hours. • I. The plates were read on PHERAstar.

[2] = biological target: T2, Akt2 (Homo sapiens, UniProt P31751); test: as above; format: biochemical; conditions: activated Akt2, HTRF, 120 minute preincubation; read-out: IC50 against Akt2
T2 construct: a middle T tag was added to the 5′ end of the full length Akt2 using the PCR primer; middle T tag (EYMPME) (N); biotin tag (from pS2neo vector); made in house; host or cells: Drosophila S2 cells
Method: as §1, §2

T1 sequence (P31749 whole entry): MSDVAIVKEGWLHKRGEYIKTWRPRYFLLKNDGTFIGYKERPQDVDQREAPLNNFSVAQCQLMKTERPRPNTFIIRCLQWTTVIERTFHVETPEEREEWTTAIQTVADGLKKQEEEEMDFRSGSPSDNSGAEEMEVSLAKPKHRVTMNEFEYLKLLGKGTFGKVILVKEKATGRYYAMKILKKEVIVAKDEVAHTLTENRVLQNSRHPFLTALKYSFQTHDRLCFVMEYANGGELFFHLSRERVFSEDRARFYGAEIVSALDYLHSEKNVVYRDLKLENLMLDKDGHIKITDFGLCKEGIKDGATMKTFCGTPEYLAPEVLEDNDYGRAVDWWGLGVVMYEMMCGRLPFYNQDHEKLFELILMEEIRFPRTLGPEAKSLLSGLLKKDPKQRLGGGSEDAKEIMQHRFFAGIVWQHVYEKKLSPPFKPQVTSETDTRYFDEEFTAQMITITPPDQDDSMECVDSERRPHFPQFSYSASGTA
T2 sequence (P31751 whole entry): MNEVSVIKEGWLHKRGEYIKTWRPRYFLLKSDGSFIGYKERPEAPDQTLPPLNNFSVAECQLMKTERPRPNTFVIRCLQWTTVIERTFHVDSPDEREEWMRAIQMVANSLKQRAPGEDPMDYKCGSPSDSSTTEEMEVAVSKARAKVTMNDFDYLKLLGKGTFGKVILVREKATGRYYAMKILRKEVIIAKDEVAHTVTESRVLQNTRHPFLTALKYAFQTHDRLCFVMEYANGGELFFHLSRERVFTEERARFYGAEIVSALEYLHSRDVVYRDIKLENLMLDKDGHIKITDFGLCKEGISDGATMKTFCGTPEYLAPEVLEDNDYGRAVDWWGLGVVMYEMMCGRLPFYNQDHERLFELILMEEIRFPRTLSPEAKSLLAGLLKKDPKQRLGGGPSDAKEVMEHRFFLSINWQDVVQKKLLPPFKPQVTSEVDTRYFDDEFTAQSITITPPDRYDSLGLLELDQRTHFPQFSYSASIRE

IC50 [1]	IC50 [2]	Structure (SMILES)
91 nM	26 nM	COc1ccc(-c2nc(-c3ccc([C@]4(N)C[C@](C)(O)C4)cc3)c(-c3ccccc3)s2)cn1 [Compound 2-1, (1R,3R)-3-amino-3-(4-(2-(6-methoxypyridin-3-yl)-5-phenylthiazol-4-yl)phenyl)-1-methylcyclobutanol]
40 nM	25 nM	COc1cncc(-c2nc(-c3ccc([C@]4(N)C[C@](C)(O)C4)cc3)c(-c3ccccc3)s2)c1 [Compound 3-1, (1R,3R)-3-amino-3-(4-(2-(5-methoxypyridin-3-yl)-5-phenylthiazol-4-yl)phenyl)-1-methylcyclobutanol]
